According to US20250222003A1, “PHARMACEUTICAL COMPOSITION FOR TREATING SOLID TUMORS” (Eisai R&D Management Co., Ltd., priority 2021, published 2025):
Where two headings read alike, the source gives them in different places. Marks after values point to notes of the source that are not given here.

Assays:
[1] = Pharmacokinetics of Compound A, phase I dose-escalation part (plasma); format: in vivo, human; settings: for AUC(0-t) / Cmax / Tmax / AUC / half-life: human, plasma, oral; for AUC(0-t): read-out: AUC(0-12 h); for half-life: read-out: Effective t1/2 (converted)
Procedure: In the treatment phase, Compound A (an oral formulation containing Compound A) is administered to the subjects of administration in one cycle of 28 days. The subjects continued to receive Compound A until disease progression, development of intolerable side effects, the desire for discontinuation of administration and consent withdrawal by the subjects of administration, or trial discontinuation by the clinical trial client. One cycle is 28 days of administration, and such an abbreviation as “C1D28” indicates the number of cycles and the number of days in the cycle, for example, “C1D28” means the 28th day of cycle 1 (the first cycle). The subjects of administration were hospitalized until the time of […] and took a medical consultation and physical examination at the time of C1D15, and if the principal investigator or sub investigator was judged, from the results, that there were no medical problems, the subjects were allowed to leave the hospital. If administration was to be continued after the completion of the medical consultation and physical examination at the time of C2D1, written consent for continuation was obtained before administration at the time of C2D1.
Tablets containing Compound A are used as Compound A and administered orally repeatedly twice daily (BID). The subjects fasted 2 hours before and 1 hour after administration. The tablets were taken with water and, if possible, at the prescribed time, but if this was not possible, the tablets were taken 8 hours or more after the previous administration.
In the dose-escalation part, blood was collected from the subjects of administration according to the schedule shown in Table 5, and the pharmacokinetics of Compound A was evaluated. In the expansion part, blood was collected from the subjects of administration before the first administration at C1D1 and CID8, 0.5, 1 and 2 hours after the oral administration of Compound A, and before the first administration at C2D1, and the pharmacokinetics of Compound A was evaluated. The data for C1D1 (the first day of the first cycle) corresponds to the results of a single-dose administration, and the data for C1D8 (the eighth day of the first cycle) corresponds to the results after multiple-dose administration for 8 days at 2 doses per 1 day.
a Based on 5 patients; b based on 2 patients; c based on 3 patients. tmax is reported as median (range). All other values are reported as geometric mean (% CV). Parameters with two patients are reported for both patients.

[2] = test system: patients with a solid tumor; experiment: Suppression of nausea or vomiting associated with administration of Compound A by antiemetics; format: in vivo, human
From the text: For subjects of administration that had the gastrointestinal symptoms, nausea or vomiting, the results of administration of various antiemetics were investigated to determine whether they could suppress the occurrence of nausea or vomiting. The antiemetics used were domperidone ([…], Nauzelin tablet), metoclopramide (peripheral D2 receptor antagonist, metoclopramide tablet), ramosetron hydrochloride (5-HT3 receptor antagonist, Nasea tablet), granisetron (5-HT3 receptor antagonist (Kytril tablet), and the like.
The antiemetics were timely administered to 20 subjects of administration that complained of vomiting during Cycle 1.
FIGS. 1 and 2 are graphs showing the relationship between Cmax(Cmax,ss) or AUC (AUC(0-tau),ss) and the vomiting flag for each test subject at the time of CID8. For example, the vomiting flag 3 means a case in which treatment with an antiemetic other than the 5-HT3 receptor antagonist was first attempted but vomiting could not be suppressed, and vomiting could be suppressed when the antiemetic was switched to the 5-HT3 receptor antagonist.
Five additional patients were investigated whether the occurrence of nausea or vomiting, which is an adverse event having a causal relationship with Compound A, could be suppressed. Ramosetron hydrochloride or granisetron hydrochloride (5-HT3 receptor antagonist) was administered to four patients of administration that complained of vomiting during Cycle 1. Of the four patients that complained of vomiting, three patients received granisetron hydrochloride to prevent the gastrointestinal symptoms (nausea, vomiting) associated with administration of Compound A.

[3] = C1D8, 160 mg BID (n = 2), both patients
[4] = 160 mg, C1D8, 160 mg BID (n = 2), both patients

## C=CCN1CC(=O)N2[C@@H](Cc3ccc(O)cc3F)C(=O)N(Cc3cccc(N4CC(N5CCN(CC)CC5)C4)n3)C[C@@H]2N1C(=O)NCc1ccccc1 [Compound A, (6S,9aS)—N-benzyl-8-({6-[3-(4-ethylpiperazin-1-yl)azetidin-1-yl]pyridin-2-yl}methyl)-6-(2-fluoro-4-hydroxybenzyl)-4,7-dioxo-2-(prop-2-en-1-yl)hexahydro-2H-pyrazino[2,1-c][1,2,4]triazine-1 (6H)-carboxamide]
[1]; 10-160 mg BID, Tables 6 and 7
  relation of exposure to dosage: exposure amount increased as the dosage of Compound A increased
[1]; C1D8, 20 mg BID, based on 2 patients, both patients
  Effective t1/2: 18.0 ^b h
[1]; [3]
  C max, ss: 3850 ng/mL
  Effective t1/2: 25.6 h
  t max, ss: 1.00, 1.00 h
[1]; 10 mg, C1D1, 10 mg BID (n = 3), geometric mean
  AUC(0-t): 131 ng·h/mL
[1]; 10 mg, C1D1, 10 mg BID (n = 3), geometric mean, read-out: Cmax
  Cmax: 37.2 ng/mL
[1]; 10 mg, C1D1, 10 mg BID (n = 3), median
  Tmax: 2 h
[1]; 10 mg, C1D8, 10 mg BID (n = 3), geometric mean, read-out: AUC (0-tau), ss
  AUC: 210 ng·h/mL
[1]; 10 mg, C1D8, 10 mg BID (n = 3), geometric mean, read-out: C max, ss
  Cmax: 53.9 ng/mL
[1]; 10 mg, C1D8, 10 mg BID (n = 3), median
  Tmax: 2 h
[1]; 15 mg, C1D1, 15 mg BID (n = 4), geometric mean
  AUC(0-t): 310 ng·h/mL
[1]; 15 mg, C1D1, 15 mg BID (n = 4), geometric mean, read-out: Cmax
  Cmax: 135 ng/mL
[1]; 15 mg, C1D1, 15 mg BID (n = 4), median
  Tmax: 0.75 h
[1]; 15 mg, C1D8, 15 mg BID (n = 4), geometric mean, read-out: AUC (0-tau), ss
  AUC: 504 ng·h/mL
[1]; 15 mg, C1D8, 15 mg BID (n = 4), geometric mean, read-out: C max, ss
  Cmax: 159 ng/mL
[1]; 15 mg, C1D8, 15 mg BID (n = 4), geometric mean
  half-life: 7.1 h
[1]; 15 mg, C1D8, 15 mg BID (n = 4), median
  Tmax: 0.75 h
[1]; 20 mg, C1D1, 20 mg BID (n = 3), geometric mean
  AUC(0-t): 501 ng·h/mL
[1]; 20 mg, C1D1, 20 mg BID (n = 3), geometric mean, read-out: Cmax
  Cmax: 146 ng/mL
[1]; 20 mg, C1D1, 20 mg BID (n = 3), median
  Tmax: 1 h
[1]; 20 mg, C1D8, 20 mg BID (n = 3), geometric mean, read-out: AUC (0-tau), ss
  AUC: 866 ng·h/mL
[1]; 20 mg, C1D8, 20 mg BID (n = 3), geometric mean, read-out: C max, ss
  Cmax: 278 ng/mL
[1]; 20 mg, C1D8, 20 mg BID (n = 3), median
  Tmax: 0.5 h
[1]; 20 mg, C1D8, 20 mg BID, based on 2 patients, both patients
  half-life: 12.2 h
[1]; 30 mg, C1D1, 30 mg BID (n = 3), geometric mean
  AUC(0-t): 349 ng·h/mL
[1]; 30 mg, C1D1, 30 mg BID (n = 3), geometric mean, read-out: Cmax
  Cmax: 105 ng/mL
[1]; 30 mg, C1D1, 30 mg BID (n = 3), median
  Tmax: 2 h
[1]; 30 mg, C1D8, 30 mg BID (n = 3), geometric mean, read-out: AUC (0-tau), ss
  AUC: 396 ng·h/mL
[1]; 30 mg, C1D8, 30 mg BID (n = 3), geometric mean, read-out: C max, ss
  Cmax: 68.3 ng/mL
[1]; 30 mg, C1D8, 30 mg BID (n = 3), median
  Tmax: 2 h
[1]; 45 mg, C1D1, 45 mg BID (n = 4), geometric mean
  AUC(0-t): 865 ng·h/mL
[1]; 45 mg, C1D1, 45 mg BID (n = 4), geometric mean, read-out: Cmax
  Cmax: 209 ng/mL
[1]; 45 mg, C1D1, 45 mg BID (n = 4), median
  Tmax: 1 h
[1]; 45 mg, C1D8, 45 mg BID (n = 4), geometric mean, read-out: AUC (0-tau), ss
  AUC: 1070 ng·h/mL
[1]; 45 mg, C1D8, 45 mg BID (n = 4), geometric mean, read-out: C max, ss
  Cmax: 199 ng/mL
[1]; 45 mg, C1D8, 45 mg BID (n = 4), geometric mean
  half-life: 6.59 h
[1]; 45 mg, C1D8, 45 mg BID (n = 4), median
  Tmax: 3 h
[1]; 80 mg, C1D1, 80 mg BID (n = 3), geometric mean
  AUC(0-t): 758 ng·h/mL
[1]; 80 mg, C1D1, 80 mg BID (n = 3), geometric mean, read-out: Cmax
  Cmax: 279 ng/mL
[1]; 80 mg, C1D1, 80 mg BID (n = 3), median
  Tmax: 2 h
[1]; 80 mg, C1D8, 80 mg BID (n = 3), geometric mean, read-out: AUC (0-tau), ss
  AUC: 2100 ng·h/mL
[1]; 80 mg, C1D8, 80 mg BID (n = 3), geometric mean, read-out: C max, ss
  Cmax: 737 ng/mL
[1]; 80 mg, C1D8, 80 mg BID (n = 3), geometric mean
  half-life: 17.4 h
[1]; 80 mg, C1D8, 80 mg BID (n = 3), median
  Tmax: 1 h
[1]; 100 mg, C1D1, 100 mg BID (n = 6), geometric mean
  AUC(0-t): 1420 ng·h/mL
[1]; 100 mg, C1D1, 100 mg BID (n = 6), geometric mean, read-out: Cmax
  Cmax: 443 ng/mL
[1]; 100 mg, C1D1, 100 mg BID (n = 6), median
  Tmax: 0.5 h
[1]; 100 mg, C1D8, 100 mg BID (n = 6), geometric mean, read-out: C max, ss
  Cmax: 862 ng/mL
[1]; 100 mg, C1D8, 100 mg BID (n = 6), geometric mean
  half-life: 13 h
[1]; 100 mg, C1D8, 100 mg BID (n = 6), median
  Tmax: 1 h
[1]; 100 mg, C1D8, 100 mg BID, based on 5 patients, geometric mean, read-out: AUC (0-tau), ss
  AUC: 2700 ng·h/mL
[1]; 120 mg, C1D1, 120 mg BID (n = 3), geometric mean
  AUC(0-t): 1910 ng·h/mL
[1]; 120 mg, C1D1, 120 mg BID (n = 3), geometric mean, read-out: Cmax
  Cmax: 557 ng/mL
[1]; 120 mg, C1D1, 120 mg BID (n = 3), median
  Tmax: 2 h
[1]; 120 mg, C1D1, 120 mg BID (n = 8, incl. additional cases), geometric mean
  AUC(0-t): 1910 ng·h/mL
[1]; 120 mg, C1D1, 120 mg BID (n = 8, incl. additional cases), geometric mean, read-out: Cmax
  Cmax: 557 ng/mL
[1]; 120 mg, C1D1, 120 mg BID (n = 8, incl. additional cases), median
  Tmax: 2 h
[1]; 120 mg, C1D8, 120 mg BID (n = 3), geometric mean, read-out: AUC (0-tau), ss
  AUC: 2460 ng·h/mL
[1]; 120 mg, C1D8, 120 mg BID (n = 3), geometric mean, read-out: C max, ss
  Cmax: 737 ng/mL
[1]; 120 mg, C1D8, 120 mg BID (n = 3), geometric mean
  half-life: 5.49 h
[1]; 120 mg, C1D8, 120 mg BID (n = 3), median
  Tmax: 1 h
[1]; 120 mg, C1D8, 120 mg BID (n = 8), based on n = 7 subjects, geometric mean, read-out: AUC (0-tau), ss
  AUC: 2460 ng·h/mL
[1]; 120 mg, C1D8, 120 mg BID (n = 8), based on n = 7 subjects, geometric mean, read-out: C max, ss
  Cmax: 751 ng/mL
[1]; 120 mg, C1D8, 120 mg BID (n = 8), based on n = 7 subjects, median
  Tmax: 1 h
[1]; 160 mg BID, C1D8, read-out: lowest value of AUC(0-tau),ss of the subjects in which vomiting could not be suppressed even after the 5-HT3 receptor antagonist
  AUC: 9060 ng·h/mL
[1]; 160 mg, C1D1, 160 mg BID (n = 2), both patients
  Tmax: 0.5 h
[1]; [4]
  Tmax: 1 h
  half-life: 17.5 h
[1]; 160 mg, C1D8, 160 mg BID (n = 2), both patients, read-out: C max, ss
  Cmax: 2980 ng/mL
[1]; C1D8, read-out: highest value of AUC(0-tau),ss of the subjects in which vomiting could be suppressed by the 5-HT3 receptor antagonist
  AUC: 7640 ng·h/mL
[2]; Table 10, before additional cases
  Vomiting flag 0, N: neither nausea nor vomiting observed, or antiemetics not required: 10
[2]; Table 14, entire dose-escalation part incl. additional cases
  Vomiting flag 0, N: neither nausea nor vomiting observed, or antiemetics not required: 11
